{"source": "patent US7906128B2", "about": "“Use of neuronal sodium channel antagonists for the control of ectoparasites in homeothermic animals” (priority 2003, dated 2011)", "key": {"[1]": {"test_system": "newly emerged larvae of blowfly, Lucilia sericata", "experiment": "Efficacy against blowfly larvae on treated filter paper discs", "details": "for LC50: Lucilia sericata", "procedure": "In this evaluation, filter paper discs are treated with an acetone solution of test compound and allowed to dry."}, "[2]": {"test_system": "adult fleas", "experiment": "Efficacy against adult fleas on beagles, full body spray", "type": "in vivo", "details": "full body spray 0.40% (wt/vol), Compound A 20 mg/kg, Standard 14.5 mg/kg body wt.", "procedure": "In this evaluation twelve beagles are each infested with 100 unfed adult fleas. Each dog is assessed for its ability to retain fleas by a comb count taken 24 hours post infestation. The dogs are blocked by these flea counts and randomly assigned to one of four treatment groups. Test compounds are applied as a full body spray of a 0.40% (wt/vol) solution of test compound in a mixture of 1% Miglyol in N-methyl-2-pyrrolidinone. One day prior to treatment each dog is infested with 100 fleas and one day post treatment the dogs are comb counted to check for knockdown efficacy. The dogs were subsequently re-infested with fleas and comb counted 24 hours later at weekly intervals."}}}
{"compound": "N#Cc1nn(-c2c(Cl)cc(C(F)(F)F)cc2Cl)c(N)c1[S+]([O-])C(F)(F)F", "note": "(centres unmarked) [Standard, fipronil]", "values": [{"measurement": "LC50", "setting": "[1]; 24 h", "result": 0.1, "unit": "µg/mL"}, {"measurement": "LC50", "setting": "[1]; 48 h", "result": 0.07, "unit": "µg/mL"}, {"measurement": "LC99", "setting": "[1]; mortality at 24 h", "result": 0.40, "unit": "µg/mL"}, {"measurement": "LC99", "setting": "[1]; mortality at 48 h", "result": 0.30, "unit": "µg/mL"}, {"measurement": "% Efficacy relative to nontreated control", "setting": "[2]; 1 DAT", "result": 100, "unit": "%"}, {"measurement": "% Efficacy relative to nontreated control", "setting": "[2]; 7 DAT", "result": 100, "unit": "%"}, {"measurement": "% Efficacy relative to nontreated control", "setting": "[2]; 14 DAT", "result": 100, "unit": "%"}, {"measurement": "% Efficacy relative to nontreated control", "setting": "[2]; 21 DAT", "result": 100, "unit": "%"}, {"measurement": "% Efficacy relative to nontreated control", "setting": "[2]; 28 DAT", "result": 100, "unit": "%"}, {"measurement": "% Efficacy relative to nontreated control", "setting": "[2]; 35 DAT", "result": 100, "unit": "%"}, {"measurement": "% Efficacy relative to nontreated control", "setting": "[2]; 42 DAT", "result": 100, "unit": "%"}, {"measurement": "% Efficacy relative to nontreated control", "setting": "[2]; 49 DAT", "result": 100, "unit": "%"}, {"measurement": "% Efficacy relative to nontreated control", "setting": "[2]; 56 DAT", "result": 100, "unit": "%"}, {"measurement": "% Efficacy relative to nontreated control", "setting": "[2]; 62 DAT", "result": 99.5, "unit": "%"}]}
